We go through 34 molecules from patent US20250353858A1, “CONDENSED HETEROCYCLIC COMPOUNDS AS INHIBITOR OF DIACYLGLYCEROL KINASES” (BEONE MEDICINES I GMBH, priority 2023, published 2025).

One assay has as its target DGKα (Homo sapiens (Human), UniProt P23743). Nature of the assay: Biochemical DGK IC50 assay (ADP-Glo, lipid micelle substrate), DGKα. Also: full length DGKα 7.5 nM. The settings on record: full length DGKα […], ATP 140 μM, DAG 80 μM. As for the experimental part: (§1) Enzymatic reactions of DGKζ, DGKα and DGKδ were performed using ADP-Glo assay with lipid micelle substrate. […] Full length DGKα (D21-10BG, SignalChem) and full length DGKδ (D23-10G, SignalChem) were purchased. Lipid micelle was prepared by dissolving DAG (Sigma, 317505-10MG) and PS (Sigma, P7769-100MG) with chloroform which was furtherly removed by rotary evaporation. The resulted product was resuspended in buffer containing 25 mM HEPES pH 7.0, 0.5 mM EDTA and 160 mM Octyl β-D glucopyranoside by vigorous mixing and ultrasonic (IID, Scientz).
(§2) The inhibition activities testing for the compound disclosed herein were carried out at room temperature in assay buffer containing 50 mM HEPES, 10 mM MgCl2, 0.01% BSA, 0.1 mM Na3VO4, 0.005% Tween-20 and 0.01 mM CaCl2. Compounds in DMSO were dispensed into wells of a black 384 well plate (Corning 4514) using D300e digital dispenser (Tecan). […] 3 μL 2× enzyme solution was added to wells. […] After 1 hour reaction, 5 μL ADP-Glo reagent (Promga V9101) was added and incubated for 40 minutes. 10 μL Kinase Detection reagent was added and incubated for 30 minutes. Luminescence was measured on a microplate reader (PHERAstar FSX, BMG labtech). The IC50s are calculated based on inhibition of enzyme activity in the presence of increasing concentrations of compounds.
On the technique in general: ADP-Glo first removes unused ATP, then detects ADP through luciferase.

The target of the next assay is DGKζ (Homo sapiens (Human), UniProt Q13574). Nature of the assay: Biochemical DGK IC50 assay (ADP-Glo, lipid micelle substrate), DGKζ. The settings on record: full length DGKζ 0.5 nM, ATP 140 μM, DAG 80 μM. As to the method:
as §1, §2
Human His-TEV-DGK-zeta-pFastBac1 and human baculovirus samples was generated using the Bac-to-Bac baculovirus expression system (Invitrogen) according to the manufacturer's protocol. The DNA used for expression of DGK-zeta, have SEQ ID Nos: 1. Baculovirus amplification was achieved using infected SF9 cells at 1:2000 virus/cells ratios, and grown for 96 hours at 27° C. post-transfected.
Full length human DGKζ produced as described above, was purified from Sf9 baculovirus-infected insect cell paste. The cells were lysed using sonication method, and the lysates were clarified by centrifugation.

Sequence of DGKα (P23743 whole entry): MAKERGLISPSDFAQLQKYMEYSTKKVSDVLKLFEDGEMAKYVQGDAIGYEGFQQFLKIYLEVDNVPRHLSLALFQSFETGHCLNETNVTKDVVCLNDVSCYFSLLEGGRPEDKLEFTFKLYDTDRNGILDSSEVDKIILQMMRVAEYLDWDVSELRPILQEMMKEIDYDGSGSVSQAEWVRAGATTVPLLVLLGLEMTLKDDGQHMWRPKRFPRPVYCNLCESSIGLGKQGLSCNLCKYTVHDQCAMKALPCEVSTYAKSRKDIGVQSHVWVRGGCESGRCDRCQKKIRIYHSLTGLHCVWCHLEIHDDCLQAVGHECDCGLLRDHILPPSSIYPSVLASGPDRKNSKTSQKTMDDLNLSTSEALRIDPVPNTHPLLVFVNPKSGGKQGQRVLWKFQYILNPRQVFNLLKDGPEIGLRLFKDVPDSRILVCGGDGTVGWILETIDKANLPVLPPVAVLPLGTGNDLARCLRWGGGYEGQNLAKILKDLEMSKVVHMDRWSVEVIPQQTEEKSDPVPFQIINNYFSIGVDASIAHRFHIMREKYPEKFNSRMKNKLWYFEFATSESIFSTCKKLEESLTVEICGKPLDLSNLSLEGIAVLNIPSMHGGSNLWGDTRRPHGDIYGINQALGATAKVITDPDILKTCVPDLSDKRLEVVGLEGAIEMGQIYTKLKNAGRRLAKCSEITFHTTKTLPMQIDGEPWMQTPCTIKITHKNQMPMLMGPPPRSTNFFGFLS
Sequence of DGKζ (Q13574 other isoform, or with tags, fused parts or gaps): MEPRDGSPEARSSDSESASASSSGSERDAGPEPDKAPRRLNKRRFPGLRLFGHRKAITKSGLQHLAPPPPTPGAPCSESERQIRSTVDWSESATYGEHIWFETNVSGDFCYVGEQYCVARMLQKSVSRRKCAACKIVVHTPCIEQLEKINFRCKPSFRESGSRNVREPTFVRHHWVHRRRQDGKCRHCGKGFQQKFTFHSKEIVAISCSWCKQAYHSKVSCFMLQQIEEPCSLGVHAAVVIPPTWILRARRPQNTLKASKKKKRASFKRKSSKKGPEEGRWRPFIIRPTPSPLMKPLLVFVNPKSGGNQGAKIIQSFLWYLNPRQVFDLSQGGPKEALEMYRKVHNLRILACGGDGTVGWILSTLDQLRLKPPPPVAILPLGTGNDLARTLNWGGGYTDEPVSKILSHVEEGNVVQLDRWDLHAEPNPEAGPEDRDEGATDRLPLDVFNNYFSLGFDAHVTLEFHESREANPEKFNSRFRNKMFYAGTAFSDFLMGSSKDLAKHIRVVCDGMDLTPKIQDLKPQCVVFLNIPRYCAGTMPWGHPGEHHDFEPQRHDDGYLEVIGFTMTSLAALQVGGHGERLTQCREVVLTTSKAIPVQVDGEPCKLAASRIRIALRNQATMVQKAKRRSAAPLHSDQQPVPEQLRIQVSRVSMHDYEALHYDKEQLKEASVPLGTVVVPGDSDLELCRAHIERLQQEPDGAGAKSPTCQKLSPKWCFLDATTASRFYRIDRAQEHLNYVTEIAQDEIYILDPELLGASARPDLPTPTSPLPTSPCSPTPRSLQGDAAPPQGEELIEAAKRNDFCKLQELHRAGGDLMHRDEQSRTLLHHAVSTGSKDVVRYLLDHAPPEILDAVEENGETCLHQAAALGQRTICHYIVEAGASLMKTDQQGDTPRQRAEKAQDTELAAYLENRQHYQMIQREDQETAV

For orientation: IC50 means the point on the concentration scale where inhibition reaches its midpoint. Regarding `CC(c1ccc2nccnc2c1)N1C[C@H](C)N(c2cc(=O)n(C)c3cc(CC#N)nn23)C[C@H]1C` (mixture of isomers) [Compound A2, 2-(7-((2S,5R)-2,5-dimethyl-4-(1-(quinoxalin-6-yl)ethyl)piperazin-1-yl)-4-methyl-5-oxo-4,5-dihydropyrazolo[1,5-a]pyrimidin-2-yl)acetonitrile], the IC50 on DGKα is 3120 nM; at DGKζ, 50 nM.
With `CC(c1ccc2nccnc2c1)N1C[C@H](C)N(c2cc(=O)n(C)c3cc(CC#N)nn23)C[C@H]1C` (single isomer, unassigned) [Compound A2a], the IC50 on DGKα was greater than 10000 nM; on DGKζ, 1710 nM.
In the case of `CC(c1ccc2nccnc2c1)N1C[C@H](C)N(c2cc(=O)n(C)c3cc(CC#N)nn23)C[C@H]1C` (single isomer, unassigned) [Compound A2b], the half-maximal inhibitory concentration (IC50) on DGKα came to 6050 nM; against DGKζ it was 32 nM.
`CC[C@@H]1CN(c2cc(=O)[nH]c3cc(CC#N)nn23)[C@@H](C)CN1C(C)c1ccc2nccnc2c1` (single isomer, unassigned) [Compound A4a]: the IC50 against DGKα worked out at 64900 nM; against DGKζ, 153 nM.
As to `CC[C@@H]1CN(c2cc(=O)[nH]c3cc(CC#N)nn23)[C@@H](C)CN1C(C)c1ccc2nccnc2c1` (single isomer, unassigned) [Compound A4b], the IC50 against DGKα is greater than 10000 nM; against DGKζ, 7390 nM.
With `CC(c1ccc2c(c1)OC(C)(C)CO2)N1C[C@H](C)N(c2c(C#N)c(=O)n(C)c3cc(CC#N)nn23)C[C@H]1C` (single isomer, unassigned) [Compound A12a], the results for the half-inhibitory concentration (IC50) on DGKα and on DGKζ were 12500 nM and 11 nM, respectively.
The like results for `CC(c1ccc2c(c1)OC(C)(C)CO2)N1C[C@H](C)N(c2c(C#N)c(=O)n(C)c3cc(CC#N)nn23)C[C@H]1C` (single isomer, unassigned) [Compound A12b] were, in that order, 10400 nM and 1150 nM.
The corresponding values for `CC[C@@H]1CN(c2c(F)c(=O)n(C)c3cc(CC#N)nn23)[C@@H](C)CN1C(C)c1ccc(C2CC2)nc1` (single isomer, unassigned) [Compound A24a] are 2670 nM and 3870 nM.
With `CC[C@@H]1CN(c2c(F)c(=O)n(C)c3cc(CC#N)nn23)[C@@H](C)CN1C(C)c1ccc(C2CC2)nc1` (single isomer, unassigned) [Compound A24b], the 50% inhibitory concentration (IC50) came to 4480 nM against DGKα and 2650 nM against DGKζ.
The corresponding values for `CC[C@@H]1CN(c2cc(=O)n(C)c3cc(CC#N)nn23)[C@@H](C)CN1C(C)c1ccc2ncsc2c1` (single isomer, unassigned) [Compound A28a] are 233 nM and 21 nM.
On to `CC[C@@H]1CN(c2cc(=O)n(C)c3cc(CC#N)nn23)[C@@H](C)CN1C(C)c1ccc2ncsc2c1` (single isomer, unassigned) [Compound A28b], for which the values for the IC50 on DGKα and against DGKζ were 1470 nM and 2220 nM, respectively.
Turning to `CC[C@@H]1CN(c2cc(=O)n(C)c3cc(CC#N)nn23)[C@@H](C)CN1[C@@H](C)c1ccc2ncsc2n1` (single isomer, unassigned) [Compound A29a], the half-maximal inhibitory concentration (IC50) at DGKα was found to be 212 nM; against DGKζ, 42 nM.
As to `CC[C@@H]1CN(c2cc(=O)n(C)c3cc(CC#N)nn23)[C@@H](C)CN1[C@H](C)c1ccc2ncsc2n1` (single isomer, unassigned) [Compound A29b], the IC50 stood at 1590 nM at DGKα and 1540 nM against DGKζ.
The corresponding values for `CC(c1ccc2nccnc2c1)N1CCC(c2cc(=O)n(C)c3cc(CC#N)nn23)C[C@H]1C` (single isomer, unassigned) [Compound A33a] are greater than 10000 nM and greater than 10000 nM.
For the molecule `CC(c1ccc2nccnc2c1)N1CCC(c2cc(=O)n(C)c3cc(CC#N)nn23)C[C@@H]1C` (single isomer, unassigned) [Compound A34a], the IC50 against DGKα was greater than 150000 nM; against DGKζ it was 5710 nM.
Regarding `CC(c1ccc2nccnc2c1)N1CCC(c2cc(=O)n(C)c3cc(CC#N)nn23)C[C@@H]1C` (single isomer, unassigned) [Compound A34b], the IC50 is greater than 150000 nM at DGKα and greater than 10000 nM at DGKζ.
As to `CC[C@H]1CN(C(C)c2ccc3nc(C)sc3n2)[C@H](CC)CN1c1cc(=O)n(C)c2cc(CC#N)nn12` (single isomer, unassigned) [Compound A35a], the IC50 is 2260 nM at DGKα and 4690 nM against DGKζ.
Turning to `CC[C@H]1CN(C(C)c2ccc3nc(C)sc3n2)[C@H](CC)CN1c1cc(=O)n(C)c2cc(CC#N)nn12` (single isomer, unassigned) [Compound A35b], the IC50 against DGKα was 72 nM; against DGKζ, 31 nM.
With `CC[C@H]1CN(C(C)c2ccc3cc(C(F)F)sc3n2)[C@H](CC)CN1c1cc(=O)n(C)c2cc(CC#N)nn12` (single isomer, unassigned) [Compound A37a], the IC50 at DGKα stood at 200 nM; against DGKζ, 1580 nM.
`CC[C@H]1CN(C(C)c2ccc3cc(C(F)F)sc3n2)[C@H](CC)CN1c1cc(=O)n(C)c2cc(CC#N)nn12` (single isomer, unassigned) [Compound A37b]: the half-maximal inhibitory concentration (IC50) against DGKα amounted to 24 nM; against DGKζ, 83 nM.
In the case of `CC[C@H]1CN(C(C)c2ccc3nc(C)cn3n2)[C@H](CC)CN1c1cc(=O)n(C)c2cc(CC#N)nn12` (single isomer, unassigned) [Compound A38a], the half-inhibitory concentration (IC50) was 3880 nM against DGKα and greater than 10000 nM at DGKζ.
Take `CC[C@H]1CN(C(C)c2ccc3nc(C)cn3n2)[C@H](CC)CN1c1cc(=O)n(C)c2cc(CC#N)nn12` (single isomer, unassigned) [Compound A38b]: the IC50 at DGKα came to 205 nM; against DGKζ it was 469 nM.
The corresponding values for `CC[C@H]1CN(C(C)c2ccn3nccc3n2)[C@H](CC)CN1c1cc(=O)n(C)c2cc(CC#N)nn12` (single isomer, unassigned) [Compound A39a] are 585 nM and greater than 10000 nM.
The like results for `CC[C@H]1CN(C(C)c2ccn3nccc3n2)[C@H](CC)CN1c1cc(=O)n(C)c2cc(CC#N)nn12` (single isomer, unassigned) [Compound A39b] were, in that order, 52 nM and 104 nM.
With `CC[C@H]1CN(C(C)c2ccn3nc(C)cc3n2)[C@H](CC)CN1c1cc(=O)n(C)c2cc(CC#N)nn12` (single isomer, unassigned) [Compound A40a], the IC50 at DGKα stood at 1540 nM; against DGKζ, 5770 nM.
As to `CC[C@H]1CN(C(C)c2ccn3nc(C)cc3n2)[C@H](CC)CN1c1cc(=O)n(C)c2cc(CC#N)nn12` (single isomer, unassigned) [Compound A40b], the IC50 was found to be 61 nM against DGKα and 53 nM against DGKζ.
The like results for `CC[C@H]1CN(C(C)c2ccn3nc(F)cc3n2)[C@H](CC)CN1c1cc(=O)n(C)c2cc(CC#N)nn12` (single isomer, unassigned) [Compound A41a] were, in that order, 25 nM and 80 nM.
The like results for `CC[C@H]1CN(C(C)c2ccn3nc(F)cc3n2)[C@H](CC)CN1c1cc(=O)n(C)c2cc(CC#N)nn12` (single isomer, unassigned) [Compound A41b] were, in that order, 1590 nM and 4560 nM.
Turning to `CC[C@H]1CN(C(C)c2ccc3nc(C)cn3n2)[C@H](CC)CN1c1nc(=O)n(C)c2cc(CC#N)nn12` (single isomer, unassigned) [Compound A45a], the figures for the IC50 at DGKα and on DGKζ were 1880 nM and greater than 10000 nM, respectively.
As for `CC[C@H]1CN(C(C)c2ccc3nc(C)cn3n2)[C@H](CC)CN1c1nc(=O)n(C)c2cc(CC#N)nn12` (single isomer, unassigned) [Compound A45b], the figures for the IC50 at DGKα and against DGKζ were 66 nM and 116 nM, respectively.
For the molecule `CC[C@H]1CN(C(C)c2ccc3nc(C)c(F)n3n2)[C@H](CC)CN1c1nc(=O)n(C)c2cc(CC#N)nn12` (single isomer, unassigned) [Compound A48a], the half-inhibitory concentration (IC50) against DGKα was 5330 nM; against DGKζ, greater than 10000 nM.
Regarding `CC[C@H]1CN(C(C)c2ccc3nc(C)c(F)n3n2)[C@H](CC)CN1c1nc(=O)n(C)c2cc(CC#N)nn12` (single isomer, unassigned) [Compound A48b], the IC50 against DGKα stood at 63 nM; against DGKζ, 24 nM.
`CC[C@H]1CN(C(C)c2ccc3nc(C)sc3c2)[C@H](CC)CN1c1nc(=O)n(C)c2cc(CC#N)nn12` (single isomer, unassigned) [Compound A53a]: the concentration for half-maximal inhibition (IC50) stood at 114 nM against DGKα and 20 nM on DGKζ.
The like results for `CC[C@H]1CN(C(C)c2ccc3nc(C)sc3c2)[C@H](CC)CN1c1nc(=O)n(C)c2cc(CC#N)nn12` (single isomer, unassigned) [Compound A53b] were, in that order, 947 nM and 552 nM.
